# PubChem BioAssay (NCI)
#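 Following 48 hours of exposure in 96-well plates, responses at five concentrations were used to interpolate endpoints linearly. GI50 is the concentration that inhibits growth by half. TGI: total growth inhibition.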
# Key:
# Test in all cases: NCI tumour cell line growth inhibition, 48 h
# T-47D breast = test system: T-47D breast
# MDA-MB-231 breast = test system: MDA-MB-231 breast
# DU-145 prostate = test system: DU-145 prostate
# BT-549 breast = test system: BT-549 breast
# HOP-62 NSCLC = test system: HOP-62 NSCLC
# MDA-MB-435 = test system: MDA-MB-435
SMILES,GI50 (T-47D breast) [µM],TGI (T-47D breast) [µM],GI50 (MDA-MB-231 breast) [µM],TGI (MDA-MB-231 breast) [µM],GI50 (DU-145 prostate) [µM],TGI (DU-145 prostate) [µM],GI50 (BT-549 breast) [µM],TGI (BT-549 breast) [µM],GI50 (HOP-62 NSCLC) [nM],TGI (HOP-62 NSCLC) [µM],GI50 (MDA-MB-435) [nM],TGI (MDA-MB-435) [µM]
Cc1cc(C)c(NC(=O)c2sc3nc4c(cc3c2N)C(=O)CCC4)c(C)c1,5,> 63.5,7.26,> 100,3.36,> 100,7.29,> 35.4,4560,> 100,–,–
COc1ccc(C[N+](C)(C)N)cc1OC,–,–,> 100,> 100,> 100,> 100,> 100,> 100,> 100000,> 100,> 100000,> 100
CC/C=C\C[C@H](O)C/C=C1/C(=O)C=C[C@@H]1C/C=C\CCCC(=O)OC,2.52,12.8,2.94,9.23,4.07,15.2,2.15,6.07,1480,5.15,1190,10
COc1ccc(/C=C/c2c(C(=O)/C=C/c3ccccc3)c(C)nc3ccccc23)cc1,1.77,5.11,2.43,7.87,1.68,3.16,2,5.18,1890,3.58,2180,5.69
CCCC(CCC)NCC(O)c1cc(-c2ccc(C(F)(F)F)cc2)nc(C(F)(F)F)c1 (centres undefined),1.7,3.3,1.53,3.17,1.94,3.39,–,–,1660,3.12,1960,3.74
S=c1ssc(N2CCOCC2)c1Cl,> 100,> 100,26.6,> 100,20.3,56.5,–,–,> 100000,> 100,25000,73.7
COCC[C@H]1CCC/C=C/[C@@H]2C[C@H](O)C[C@H]2[C@H](O)/C=C/C(=O)O1,–,–,0.131,0.322,0.445,> 100,0.132,> 90.9,94.6,> 100,59.5,> 100
O=C(Nc1n[nH]c2cc(-c3ccccc3)ccc12)C1CC1,17.8,> 25,14.7,> 25,9.28,> 25,15.5,> 25,> 25000,> 25,721,> 25
CC1=C(/C=C/Cl)CC(Cl)C(C)(Cl)C1 (centres undefined),–,> 100,–,> 100,–,> 100,–,> 100,–,–,–,> 100
O=c1cc(NCC(O)CN2CCCC2)n(Cc2ccccc2)c(=O)n1Cc1ccccc1 (centres undefined),52.4,> 100,26.3,70.6,87,> 100,61.6,> 100,18700,54.4,26700,65.8
Cc1cc2nc(C=C(C(F)(F)F)C(F)(F)F)oc2cc1C,–,8.53,–,5.42,–,> 10,–,6.13,–,9.72,–,4.21
